This test relates to fundus of the stomach (gastric tone). In words: Gastric tone measured by an electronic barostat in conscious dogs. It counts as in vivo. As to conditions: mean maximal change in gastric volume on relaxation of the fundus; S.C. administration, 0.63 mg/kg; 1 hour observation period; constant pressure 6 mmHg; conscious female beagle dogs. As for the experimental part: C.1. Gastric Tone Measured by an Electronic Barostat in Conscious Dogs Gastric tone cannot be measured by manometric methods. Therefore an electronic barostat was used. This allows the study of the physiological pattern and regulation of gastric tone in conscious dogs and the influence of test-compounds on this tone. The barostat consists of an air injection system which is connected by a double-lumen 14-French polyvinyl tube to an ultrathin flaccid polyethylene bag (maximal volume: ±700 ml). Variations in gastric tone were measured by recording changes in the volume of air within an intragastric bag, maintained at a constant pressure. The barostat maintains a constant pressure (preselected) within a flaccid air-filled bag introduced into the stomach, changing the volume of air within, the bag by an electronic feedback system. Thus, the barostat measures gastric motor activity (contraction or relaxation) as changes in intragastric volume (decrease or increase resp.) at a constant intragastric pressure. The barostat consists of a strain gauge linked by an electronic relay to an air injection-aspiration system. Both the strain gauge and the injection system are connected by means of double-lumen polyvinyl tube to an ultrathin polyethylene bag. […] Test compounds were screened, i.e. changes in gastric volume were measured, usually at 0.63 mg/kg. […]

The values below come from patent publication US7358239B2, “Pyrrolidinyl, piperidinyl or homopiperidinyl substituted (benzodioxan, benzofuran or benzopyran) derivatives” (Janssen Pharmaceutica, N.V., priority 1999, dated 2008).

For “[1(R),[B-(3α,4α)]]-1-[1-[(3,4-dihydro-2H-1-benzopyran-2-yl)methyl]-3-methoxy-4-piperidinyl]-2(1H)pyrimidinone [Co. No. 2]”, the “Maximum change in volume” value is 9 mL.
